Experimental data as given in the OPERA property sets (Mansouri et al. 2018).
Peptide text beside a SMILES is read from it.

Structure (SMILES) | logP
O=[N+]([O-])c1cccc(SSc2cccc([N+](=O)[O-])c2)c1 | 4.06
CC(C)(C)c1ccccc1OCC(=O)O | 3.33
COc1cc(NCc2ccc3nc(N)nc(N)c3c2C)cc(OC)c1OC | 2.55
Oc1ccc(I)cc1 | 2.91
CC(C)C(=O)NC(N)=O | 0.04
CC1(O)CC23C(O)C1CCC2(O)C(C)(O)C1C2OC2C(C)(C)C1(O)C(O)C3O (stereo not drawn) | -0.57
CCOc1cc(C(=O)NN)ccn1 | 0.48
CCC(=O)O[C@]1(c2ccccc2)CCN(C)C[C@@H]1C | 2.83
Cc1cc(-c2ccccc2)nnc1NCCN1CCOCC1 | 2.03
O=C(NP(=O)(N1CC1)N1CC1)c1ccc(Br)cc1 | 1.63
NCCCN | -1.43
O=C1CN=C(c2ccccc2)c2cc(Cl)ccc2N1CC1CC1 | 3.73
NC(=O)c1ccc([N+](=O)[O-])cc1 | 0.82
CCOC(=O)c1ccoc1 | 1.78
C#CCN(CC#C)CC#C | 1.27
CCOC=O | 0.23
N#CCCc1ccccc1 | 1.72
O=S(=O)(O)c1cc(O)c2ccccc2c1 | -0.18
Fc1cccc(F)n1 | 1.17
CCC1(C2=CCCCC2)C(=O)NC(=O)NC1=O | 1.77
Cl[C@H]1[C@H](Cl)[C@@H](Cl)[C@@H](Cl)[C@H](Cl)[C@H]1Cl (racemic) | 3.72
CCN(CC)C(=O)C(C)Oc1cccc2ccccc12 (stereo not drawn) | 3.36
Cc1cccc(N(C)C)c1 | 2.8
O=C(Nc1ccccc1)C(F)(F)F | 2.21

Structure (SMILES) | logP
CCCCCCCBr | 4.36
CC(=O)c1ccc(C(=O)OCCN(C)C)cc1 | 1.57
C=C(C)C(=O)OC(C)(C)C | 2.54
CCNc1nc(NCC)nc(SC(F)F)n1 | 3.28
OCC(F)(F)C(F)(F)F | 1.23
O=[N+]([O-])c1ncn(CC(O)CF)n1 (stereo not drawn) | -0.59
c1nnnn1C12CC3CC(CC(C3)C1)C2 | 2.95
Nc1ncc(Cc2ccccc2)c(N)n1 | 1.58
Cc1cccc(N2C(=O)CCC2=O)c1 | 0.57
CN(C)C(N(C)C)=S(I)c1ccc(S(=O)(=O)N(C)C)cc1 (stereo not drawn) | -0.81
CC(C)CO | 0.76
CC1CCC(=O)CC1 | 1.38
CC(=O)OCC(=O)[C@H]1CC[C@H]2[C@@H]3CCC4=CC(=O)CC[C@]4(C)[C@H]3CC[C@]12C | 3.08
CC(C)C(=O)C(C)C | 1.86
O=C(O)Cc1ccccc1Nc1c(F)cccc1Cl | 3.8
C=CC=O | -0.01
O=C=O | 0.83
COC(=O)NC(=S)Nc1ccccc1NC(=S)NC(=O)OC | 1.4
CC(=O)Nc1ncnc2c1ncn2C | -0.41
CCC1(C2=CCCCCC2)C(=O)NC(=O)NC1=O | 2.03
CC(=O)N[C@H](C(=O)N[C@H](C(N)=O)C(C)C)C(C)C (Ac-Val-Val-NH2) | -0.32
CC(C)N(Cc1cccnc1)C(C)C | 2.27
CC1Nc2cc(Cl)c(S(N)(=O)=O)cc2S(=O)(=O)N1 (stereo not drawn) | 0.08
CC(=O)c1ccc(N)cc1 | 0.83

Structure (SMILES) | logP
CS(=O)(=O)OCCCCOS(C)(=O)=O | -0.52
CCSC(=O)N(CC(C)C)CC(C)C | 4.15
CN(C)c1ccnnc1 | -0.09
Clc1cccc(-c2cc(Cl)ccc2Cl)c1 | 5.76
CCC(C)CC(=O)OCC1CCC(n2cnc3c(=O)[nH]cnc32)O1 (stereo not drawn) | 1
CC(=O)Nc1ccc(S(I)=C(N(C)C)N(C)C)cc1 (stereo not drawn) | -1.58
O=C(O)COc1ccc(Cl)c(Cl)c1 | 2.81
N#Cc1ccc(S(N)(=O)=O)cc1 | 0.23
COc1cc(O)cc(OC)c1 | 1.64
NS(=O)(=O)c1ccc2c(c1)S(=O)(=O)NC(CC1CCCC1)N2 (stereo not drawn) | 1.24
CCN(CC)C(C)CN1c2ccccc2Sc2ccccc21 (stereo not drawn) | 4.77
CC(C)(O)C(=O)O | -0.36
CN(O)N=Nc1ccc(C(N)=O)cc1 | -0.22
O=C1CCCCCCN1 | 0.24
Brc1cnc2ccccc2c1 | 3.03
CCCOCCC | 2.03
Sc1ccccn1 | -0.13
CC(Cl)(Cl)C(=O)O | 0.78
OCCOCCOCCN1CCC(=C(c2ccccc2)c2ccccc2)CC1 | 3.78
N#CC(=Cc1ccccc1)C(N)=O | 1.56
O=NN(CCCl)C(=O)NC1CCCCC1Cl (stereo not drawn) | 2.73
CC(C)(C)c1cc(O)ccc1[N+](=O)[O-] | 3.65
CCc1cccc2cccnc12 | 2.93
O=[N+]([O-])c1cccc(O)c1 | 2

Structure (SMILES) | logP
c1ccc(-c2ccncc2)nc1 | 1.58
c1ccc(-c2ncc[nH]2)cc1 | 1.88
Oc1ccccc1O | 0.88
Cc1ccc(S(=O)(=O)N(C)N=O)cc1 | 0.58
C1=CCCC=CCC1 | 3.16
CCOP(=S)(OCC)SCSc1ccc(Cl)cc1 | 5.33
CC(=O)Oc1ccccc1C#N | 1.33
CC(=O)Nc1c(C)cc(O)cc1C | 0.31
C#C[C@]1(O)CC[C@H]2[C@@H]3CCC4=CC(=O)CC[C@]4(C)[C@H]3CC[C@@]21C | 3.11
ONc1ccccc1 | 0.79
CCc1ccc(OC(C)=O)cc1 | 2.56
CCc1cccnc1 | 1.66
CC[n+]1cccc2ccccc21.[Br-] | -2.76
OCCCCCc1ccccn1 | 1.28
ON=Cc1ccc(Cl)cc1 | 2.67
CN(C)N=Nc1ccc(CCCC(=O)O)cc1 | 2.62
c1cncc([C@@H]2CCCN2)c1 | 0.17
COc1cc(CCO)ccc1O | 0.47
CN(C)C(=O)c1ccccc1O | 0.44
CCCCCCCCO | 3
CCSC | 1.54
COc1ccc(C=O)cc1O | 0.97
O=c1[nH]c(=O)n([C@H]2C[C@H](O)[C@@H](CO)O2)cc1C(F)(F)F | -0.46
OCC(CO)(CBr)CBr | 1.06

Structure (SMILES) | logP
Clc1ccccc1-c1c(Cl)cccc1Cl | 5.48
NC(CCCc1ccccc1)C(=O)O (stereo not drawn) | -0.36
CC(=O)c1ccco1 | 0.52
O=c1cnn(C2OC(CO)C(O)C2O)c(=O)[nH]1 (stereo not drawn) | -2.14
CCCCCCCOC(=O)C(C(=O)OCCCCCCC)=C1SCCS1 | 7.6
OCCCc1ccncc1 | 0.58
CCCCCCCCl | 4.15
Cc1ccccc1S(I)=C(N(C)C)N(C)C (stereo not drawn) | -0.1
Cc1nc(-c2ccccc2)c2ccccc2n1 | 3.1
CNC(=O)Oc1ccc(C)c(C)c1 | 2.09
O=S(=O)(Nc1ccccc1)C(F)(F)F | 3.05
CCCCCCCCBr | 4.89
O=C(NC(=O)c1ccccc1O)c1ccccc1O | 1.92
O=C(CCCN1CCN(c2ccccn2)CC1)c1ccc(F)cc1 | 3.3
CC12CC(O)C3C(CCC4(O)CC(O)CC(O)C34CO)C1(O)CCC2C1=CC(=O)OC1 (stereo not drawn) | -0.02
O=C1CCCO1 | -0.64
Clc1cc(Cl)nc(-c2ccccc2)n1 | 4.17
COc1ccc(-c2cc3ccccn3c2)cc1 | 4.2
CCCc1nc2cccc(C)n2c(=O)c1CC | 2.37
CCOC(=O)Cc1ccccc1 | 2.28
CCCOC(=O)C(C(=O)OCCC)=C1SC=CS1 | 3.93
CN(C)C(N(C)C)=S(I)c1ccc(I)cc1 (stereo not drawn) | 0.28
Oc1cc(O)c2ccccc2c1 | 1.97
CC1C(c2ccccc2)OCCN1N=O (stereo not drawn) | 2.09

Structure (SMILES) | logP
CCNc1nc(Cl)nc(NC(C)(C)C#N)n1 | 2.22
Cc1ccc2cc(C)ccc2c1 | 4.31
CC(=O)S[C@@H]1CC2=CC(=O)CC[C@]2(C)[C@H]2CC[C@@]3(C)[C@@H](CC[C@@]34CCC(=O)O4)[C@H]12 | 2.78
O=C(O)c1ccc(O)c([N+](=O)[O-])c1 | 1.85
COc1cccc(N(C)C(=S)Oc2cccc(C(C)(C)C)c2)n1 | 5.18
CCOC(=O)C(Cl)(Cl)Cl | 2.39
CON(C)/N=N/c1ccc(C(N)=O)cc1 | 1.19
N#Cc1cccc(C#N)c1 | 0.8
CCCCCOC(=O)c1ccc(S(N)(=O)=O)cc1 | 2.71
CNC(=S)NCCCCc1cnc[nH]1 | 0.39
Cc1c[nH]c2ccccc12 | 2.6
Cc1cc(C)[nH]n1 | 1.01
CCCCOc1cc(C(=O)NCCN(CC)CC)c2ccccc2n1 | 4.4
NC(=O)Nc1nc(-c2ccccc2)no1 | 1.76
Clc1cc(Cl)c(Cl)nc1Cl | 3.32
Brc1cccnc1 | 1.6
Cc1ccccc1OCC(=O)O | 1.98
CCCCCCCCOc1ccc(NC(=O)OCCN2CCCCC2)cc1 | 6.44
CCCCC(CC)COC(=O)n1cnc(CC(NC(=O)C2CCC(=O)N2)C(=O)N2CCCC2C(N)=O)c1 (stereo not drawn) | 1.82
Clc1ccc(Cl)c(Cl)n1 | 2.77
Nc1cc(C(F)(F)F)cc(C(F)(F)F)c1 | 3.57
OCCCCCc1ccncc1 | 1.39
Cc1ccc(Cl)cc1C | 3.82
CN(Cc1ccc(C#N)cc1)N=O | 0.95

Structure (SMILES) | logP
COc1ccccc1C=CC(=O)OCCOc1ccc(C=NO)cc1OC | 3.56
COC(=O)c1cccc(N2C(=O)CCC2=O)c1 | 0.36
CCC(=O)C(CC(C)N(C)C)(c1ccccc1)c1ccccc1 (stereo not drawn) | 3.93
NC(=O)c1cccnc1 | -0.37
CCC1Nc2cc(Cl)c(S(N)(=O)=O)cc2S(=O)(=O)N1 (stereo not drawn) | 0.3
Cc1ccc(C=C(C#N)C#N)cc1 | 2.4
O=C(O)CN1CCN(C(=O)Cn2c(=O)sc3ccc(Cl)cc32)CC1 | -0.71
CC(=O)c1csc2ccccc12 | 2.78
Cc1cccc(C)c1C | 3.66
CCCCCCn1nnc2ccccc21 | 3.7
CC(=O)c1ccc(C(C)C)cc1 | 2.98
CC(C)NC(C)C | 1.4
O=C(O)C(c1ccccc1)n1cccc1 (stereo not drawn) | 1.57
COC(=O)C(C)N(C(=O)c1ccco1)c1c(C)cccc1C (stereo not drawn) | 2.61
CC(=O)c1cccc(O)c1 | 1.39
CCOC(=O)CC(=O)c1ccccc1 | 1.87
CC(C)C(C)C | 3.42
CN(C)C(=O)OCc1ccc(C(F)(F)F)cc1 | 3.08
CCCCNCCC | 2.12
CC(C)c1cnc(NS(=O)(=O)c2ccc(N)cc2)nc1 | 1.23
CC(=O)Nc1cc(C)c(O)c(C)c1 | 1.11
CCCCC[N+](=O)[O-] | 2.01
c1cn[nH]c1 | 0.26
CCCCCCCCOc1ccccc1NC(=O)OCCN1CCCCC1 | 6.36
